Data from patent US20230114728A1 (Venatorx Pharmaceuticals, Inc., priority 2019, published 2023).
Values after ≈ are worked out from the molar mass of the structure shown. Like-named read-outs stand apart in the source and are kept apart here.

Columns and labels:
E. coli D22 = experiment: Broth microdilution MIC in CAMHB; format: cell-based; settings: Escherichia coli, MHB, read-out: Minimum Inhibitory Concentration, E. coli D22
Experimental: (§1) Example III: In Vitro Antibacterial Assays
(§2) To determine the ability of test compounds to inhibit the growth of bacterial strains, classic cell based broth microdilution minimum inhibitory concentration (MIC) assays were employed. MIC assays are performed according to CLSI methods except where otherwise noted (CLSI, 2018 and CLSI, 2019). The reference type strain E. coli ATCC 25922; the wild-type parent strain E. coli AG100; the hyper-permeable E. coli 901C and E. coli D22; and the E. coli AG100A strain lacking the acrAB efflux pump encoding genes were used to determine the ability of the PBP inhibitors to penetrate the outer membrane of gram-negative bacteria and inhibit bacterial growth. […] The P. aeruginosa ATCC 27853 and A. baumannii ATCC 19606, along with the hyper-permeable P. aeruginosa ATCC 35151 and an engineered efflux pump-compromised strain of P. aeruginosa (ΔmexAB-oprM) were used to determine the ability of PBP inhibitors to penetrate the outer membrane of P. aeruginosa and A. baumannii and assess antibacterial activity against these important gram-negative organisms.
(§3) Briefly, cryo-preserved bacterial cultures of challenge strains are streaked for isolation on appropriate agar medium, in this case cation-adjusted Mueller Hinton agar. Following incubation to allow growth of the colonies, plates are sealed with parafilm and stored refrigerated for up to two weeks. For preparation of assay inoculum and to ensure low variability, at least 5 colonies are picked from the agar plates with an inoculating loop and aseptically transferred to a culture tube containing 3 mL of cation-adjusted Mueller Hinton broth (CAMHB). The broth culture is grown for 3-5 hours at 37° C. with shaking at 200 rpm. Meanwhile, 2-fold serial dilutions of test compounds are conducted in a 96-well plate with a final volume of 75 μL per well at 2-fold the final desired concentration. After the dilution plates are set up the growing cultures are then diluted in a cuvette containing CAMHB and the optical density is measured at 600 nm. The inoculum is diluted such that 75 μL of this culture in CAMHB results in a starting bacterial concentration of 2-8×10^5 CFU/mL when added to the dilution plates. The plates are incubated for 16-20 hours for Enterobacteriaceae and Pseudomonas and 20-24 hours for Acinetobacter at 37° C. The MIC values are read visually as the lowest concentration well with no bacterial growth.

E. coli ATCC 25922 = experiment: Broth microdilution MIC in CAMHB; format: cell-based
Experimental: as §1, §2, §3

E. coli 901C = experiment: Broth microdilution MIC in CAMHB; format: cell-based; settings: Escherichia coli, MHB, read-out: Minimum Inhibitory Concentration, E. coli 901C
Experimental: as §1, §2, §3

[1] = system: P. aeruginosa (ΔmexAB-oprM); experiment: Broth microdilution MIC in CAMHB; format: cell-based; settings: Pseudomonas aeruginosa, read-out: Minimum Inhibitory Concentration, P. aeruginosa ΔmexAB-OprM
Experimental: as §1, §2, §3

P. aeruginosa ATCC 27853 = experiment: Broth microdilution MIC in CAMHB; format: cell-based; settings: Pseudomonas aeruginosa, ATCC27853; MHB; read-out: Minimum Inhibitory Concentration, P. aeruginosa ATCC 27853
Experimental: as §1, §2, §3

P. aeruginosa ATCC 35151 = experiment: Broth microdilution MIC in CAMHB; format: cell-based; settings: Pseudomonas aeruginosa, ATCC35151; MHB; hyper-permeable strain; read-out: Minimum Inhibitory Concentration, P. aeruginosa ATCC 35151
Experimental: as §1, §2, §3

[2] = system: K. pneumoniae 848844 producing SHV-11 and KPC-2; experiment: Broth microdilution MIC in CAMHB; format: cell-based; settings: Klebsiella pneumoniae, read-out: Minimum Inhibitory Concentration, K. pneumoniae 848844
Experimental: as §1, §2, §3

E. coli AG100 = experiment: Broth microdilution MIC in CAMHB; format: cell-based; settings: Escherichia coli, MHB, read-out: Minimum Inhibitory Concentration, E. coli AG100
Experimental: as §1, §2, §3

E. coli AG100A = experiment: Broth microdilution MIC in CAMHB; format: cell-based; settings: Escherichia coli, read-out: Minimum Inhibitory Concentration, E. coli AG100A
Experimental: as §1, §2, §3

[3] = system: K. pneumoniae UMM producing SHV-5 and KPC-2; experiment: Broth microdilution MIC in CAMHB; format: cell-based; settings: Klebsiella pneumoniae, read-out: Minimum Inhibitory Concentration, K. pneumoniae UMM
Experimental: as §1, §2, §3

A. baumannii ATCC 19606 = experiment: Broth microdilution MIC in CAMHB; format: cell-based; settings: Acinetobacter baumannii, ATCC19606; MHB; read-out: Minimum Inhibitory Concentration, A. baumannii ATCC 19606
Experimental: as §1, §2, §3

[4] = system: K. pneumoniae SI-117 producing VIM-1; experiment: Broth microdilution MIC in CAMHB; format: cell-based; settings: Klebsiella pneumoniae, read-out: Minimum Inhibitory Concentration, K. pneumoniae SI-117
Experimental: as §1, §2, §3

P. aeruginosa PBP3 = molecular target: T1, P. aeruginosa PBP3 (Pseudomonas aeruginosa, UniProt G3XD46); experiment: Bocillin-FL fluorescence polarization competition binding assay, P. aeruginosa PBP3; settings: P. aeruginosa PBP3; assay validation with beta-lactams; read-out: EC50 (concentration of beta-lactam required to reduce the amount of PBP bound-Bocillin-FL by 50%)
T1 construct: made in house
T1 sequence (G3XD46 whole entry): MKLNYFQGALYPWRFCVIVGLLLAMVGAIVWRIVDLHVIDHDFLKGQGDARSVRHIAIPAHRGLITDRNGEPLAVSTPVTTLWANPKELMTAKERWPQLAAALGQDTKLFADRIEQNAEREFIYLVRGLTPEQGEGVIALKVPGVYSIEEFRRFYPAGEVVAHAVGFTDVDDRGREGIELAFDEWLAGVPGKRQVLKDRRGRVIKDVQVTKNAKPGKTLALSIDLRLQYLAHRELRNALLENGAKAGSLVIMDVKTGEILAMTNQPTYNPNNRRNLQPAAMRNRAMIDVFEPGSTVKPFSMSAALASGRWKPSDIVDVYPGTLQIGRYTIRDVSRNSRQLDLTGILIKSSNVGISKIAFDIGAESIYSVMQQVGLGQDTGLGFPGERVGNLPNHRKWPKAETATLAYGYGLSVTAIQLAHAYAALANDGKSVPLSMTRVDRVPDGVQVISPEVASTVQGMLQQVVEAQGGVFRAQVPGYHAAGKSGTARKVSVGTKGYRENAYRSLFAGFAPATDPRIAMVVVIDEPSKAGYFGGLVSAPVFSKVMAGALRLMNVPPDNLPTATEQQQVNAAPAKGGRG
Source text: Example I: Experimental Method for Penicillin-Binding Protein Binding Assays with Bocillin-FL Via Fluorescence Polarization
To determine the ability of boronic acid-based test PBP inhibitors to bind Penicillin Binding Proteins (PBPs), Bocillin-FL (fluorescently-labeled penicillin V; ThermoFisher Scientific) was used in a fluorescence polarization (FP) competition binding assay to assess inhibitor binding to PBP2, PBP3 or PBP4 from Escherichia coli (K12), PBP3 from Pseudomonas aeruginosa (PA01), PBP1a, PBP2 and PBP3 from Acinetobacter baumannii (ATCC 19606), and PBP2 from Neiserria gonorrheae (FA19). PBPs were cloned and purified as described previously (E. coli PBPs, King, D. T, et al., ACS Infectious Diseases 2015, 1, 175-184; P. aeruginosa PBP3, Han et. al., PNAS 2010, 107 (51), 22002-22007; A. baumannii PBPs, Penwell et. al., Antimicrob. Agents Chemother. 2015, 59 (3), 1680-1689; N. gonorrhoeae PBP2, Singh et. al., J Biol. Chem. 2019, 294 (38), 14020-14032). To establish assay conditions for competition binding, enzyme titration/saturation binding experiments were initially performed. Bocillin-FL was prepared at 0.2 μM in a buffer comprised of 50 mM Hepes (pH 8.0), 300 mM NaCl and 5% (v/v) glycerol for reactions with E. coli, P. aeruginosa and N. gonorrhoeae PBPs, and 25 mM Tris (pH 8.0), 200 mM NaCl and 10% (v/v) glycerol and 0.005% (v/v) Tween 20 for reactions with A. baumannii PBPs. Saturation binding was performed by mixing 40 μl of PBP solutions ranging in concentrations from 0-24 μM with 40 μl of the 0.2 μM Bocillin-FL solution, in individual wells of a black 384-well microplate. FP was measured immediately upon mixing (Excitation, 490 nm; Emission, 520 nm; g-factor, 0.96), using a Cytation3 (BioTek) microplate reader and measured continuously for up to 120 minutes. […] The competition binding assay (80 μl final volume) was validated using beta-lactams and PBPs at final concentrations of: 1.5 μM, E. coli PBP3; 0.75 μM, P. aeruginosa PBP3; 1 μM A. baumannii PBP1a; 2.5 μM A. baumannii PBP2; 0.2 μM A. baumannii PBP3; and […] N. gonorrhoeae PBP2. Bocillin-FL was at 0.1 μM (0.05 μM with A. baumannii PBP1a) and beta-lactam concentrations ranged from 0-1000 μM. […] Bocillin-FL was added and the FP immediately measured for up to 60 minutes (90 minutes for E. coli PBP2). […] The beta-lactam potency was reported as the concentration of beta-lactam required to reduce the amount of PBP bound-Bocillin-FL by 50% (EC50). […] Binding assays for boronic acid PBP inhibitors were performed in an identical fashion for the respective PBPs

[5] = Escherichia coli, ATCC25922; MHB; E. coli ATCC 25922; read-out: Minimum Inhibitory Concentration, E. coli 25922
[6] = wild-type parent strain E. coli AG100

| Structure (SMILES) | MIC (E. coli D22; hyper-permeable E. coli D22) [µg/mL] | MIC (E. coli ATCC 25922; [5]) [µg/mL] | MIC (E. coli 901C; hyper-permeable E. coli 901C) [µg/mL] | MIC [1] [µg/mL] | MIC (P. aeruginosa ATCC 27853) [µg/mL] | MIC (P. aeruginosa ATCC 35151) [µg/mL] | MIC [2] [µg/mL] | MIC (E. coli AG100; [6]) [µg/mL] | MIC (E. coli AG100A) [µg/mL] | MIC [3] [µg/mL] | MIC (A. baumannii ATCC 19606) [µg/mL] | MIC [4] [µg/mL] | MIC (E. coli D22; E. coli D22 (hyper-permeable)) [µg/mL] | MIC (E. coli ATCC 25922; Escherichia coli, ATCC25922; E. coli ATCC 25922; MHB; read-out: Minimum Inhibitory Concentration, E. coli 25922) [µg/mL] | MIC (E. coli 901C; E. coli 901C (hyper-permeable)) [µg/mL] | MIC (E. coli AG100; E. coli AG100 (wild-type parent)) [µg/mL] | EC50 (P. aeruginosa PBP3) [µM] |
| --- | --- | --- | --- | --- | --- | --- | --- | --- | --- | --- | --- | --- | --- | --- | --- | --- | --- |
| NCCN1CCN(C(=O)N[C@H](C(=O)N[C@H]2Cc3cccc(C(=O)O)c3OB2O)c2c(Cl)cccc2Cl)C(=O)C1=O (single isomer, unassigned) [Example 225] | > 128 | > 128 | > 128 | > 128 | > 128 | > 128 | > 128 | > 128 | > 128 | 32 to 64 (≈ 54 to 108 µM) | > 128 | > 128 | – | – | – | – | – |
| NC1(CN2CCN(C(=O)N[C@@H](C(=O)N[C@H]3Cc4cccc(C(=O)O)c4OB3O)c3cc(F)c(O)c(F)c3F)C(=O)C2=O)CC1 (single isomer, unassigned) [Example 244] | 32 to 64 (≈ 51.7 to 103 µM) | 8 to 16 (≈ 12.9 to 25.8 µM) | > 128 | 2 to 4 (≈ 3.23 to 6.46 µM) | 32 to 64 (≈ 51.7 to 103 µM) | < 0.25 | 32 to 64 (≈ 51.7 to 103 µM) | > 128 | 32 to 64 (≈ 51.7 to 103 µM) | < 0.25 | > 128 | 2 to 4 (≈ 3.23 to 6.46 µM) | – | – | – | – | – |
| NC1(CN2CCN(C(=O)NC(C(=O)N[C@H]3Cc4cccc(C(=O)O)c4OB3O)c3cc(F)c(O)c(F)c3F)C(=O)C2=O)CC1 (single isomer, unassigned) [Example 245] | > 128 | > 128 | > 128 | 8 to 16 (≈ 12.9 to 25.8 µM) | > 128 | 0.5 to 1 (≈ 0.807 to 1.61 µM) | > 128 | > 128 | > 128 | 2 to 4 (≈ 3.23 to 6.46 µM) | > 128 | 8 to 16 (≈ 12.9 to 25.8 µM) | – | – | – | – | – |
| NCCCN1CCN(C(=O)N[C@@H](C(=O)N[C@H]2Cc3cccc(C(=O)O)c3OB2O)c2cc(F)c(O)c(F)c2F)C(=O)C1=O (single isomer, unassigned) [Example 246] | 32 to 64 (≈ 52.7 to 105 µM) | 32 to 64 (≈ 52.7 to 105 µM) | > 128 | 8 to 16 (≈ 13.2 to 26.3 µM) | > 128 | 0.5 to 1 (≈ 0.823 to 1.65 µM) | > 128 | > 128 | > 128 | 2 to 4 (≈ 3.29 to 6.59 µM) | > 128 | 8 to 16 (≈ 13.2 to 26.3 µM) | – | – | – | – | – |
| NCCCN1CCN(C(=O)N[C@H](C(=O)N[C@H]2Cc3cccc(C(=O)O)c3OB2O)c2cc(F)c(O)c(F)c2F)C(=O)C1=O (single isomer, unassigned) [Example 247] | – | – | – | 2 to 4 (≈ 3.29 to 6.59 µM) | 8 to 16 (≈ 13.2 to 26.3 µM) | < 0.25 | – | – | – | – | > 128 | – | – | – | – | – | – |
| CCN1CCN(C(=O)NC(C(=O)N[C@H]2Cc3cccc(C(=O)O)c3OB2O)c2ccc(C(=O)O)c([N+](=O)[O-])c2)C(=O)C1=O (stereo partly drawn) [Example 220, (3R)-3-(2-(4-carboxy-3-nitrophenyl)-2-(4-ethyl-2,3-dioxopiperazine-1-carboxamido)acetamido)-2-hydroxy-3,4-dihydro-2H-benzo[e][1,2]oxaborinine-8-carboxylic acid] | – | – | – | 8 to 16 (≈ 13.4 to 26.8 µM) | > 128 | 0.5 to 1 (≈ 0.837 to 1.67 µM) | 32 to 64 (≈ 53.6 to 107 µM) | – | 32 to 64 (≈ 53.6 to 107 µM) | < 0.25 | > 128 | 2 to 4 (≈ 3.35 to 6.7 µM) | 32 to 64 (≈ 53.6 to 107 µM) | > 128 | > 128 | > 128 | – |
| C[C@H]1[C@H](NC(=O)/C(=N\OC(C)(C)C(=O)O)c2csc(N)n2)C(=O)N1S(=O)(=O)O [aztreonam, reference compound] | – | – | – | – | – | – | – | – | – | – | – | – | – | – | – | – | < 0.5 |
